Assay results taken from US9745339B2 (GRAFFINITY PHARMACEUTICALS GMBH, priority 2012, dated 2017).

Assays:
Bevacizumab [1] = target: T1, Bevacizumab (Homo sapiens, UniProt P01857); test: Microtiter plate chromatography of resins: binding and elution of Bevacizumab; settings: for Bevacizumab Bound: fraction of injected protein bound, 0.5 mg/ml IgG in PBS pH 7.3, ligand immobilized on SEPHAROSE 4 FF; for Bevacizumab Yield: mass eluted (glycine pH 2.5) / mass injected
T1 construct: 0.5 mg/ml IgG in PBS pH 7.3; ligand immobilized on SEPHAR; Bevacizumab Yield; other: mass eluted (glycine pH 2.5) / mass injected; kd (dissociation constant, Langmuir isotherm); other: Bevacizumab 0.05-5 mg/ml in PBS pH 7.3, 25° C., at least 3 h; qm (maximum capacity); other: mg Bevacizumab per ml of resin; Langmuir isotherm; t0; fused on or other part: Humanized anti-VEGF-A VH domain joined N-terminally to the IGHG1 constant region (engineered, no UniProt entry)
Experimental: (§1) Resins were assessed in packed mode by microtiter plate chromatography. For each column, approximately 30 μl of resin were transferred to a 384-well filter plate and sealed with appropriate top fits. Columns with rProtein A SEPHAROSE 4 FF and MABSORBENT A2P HF were included as controls.
(§2) Either 3.3 cv of whole IgGs dissolved at 0.5 mg ml^−1 in PBS or undiluted host cell proteins (HCP) were injected onto columns.
(§3) Unbound protein was washed from columns with 5 cv of PBS prior to elution with 5 cv of glycine buffer at pH 2.5. […] During injection of samples, speed was reduced to 10 g and centrifugation time increased to 5-10 min. Effluent fractions were collected in 384-well plates and concentrations of protein were analyzed by Bradford assay. Protein masses mi, mft and me (see below) were calculated as the product of fraction volume and measured protein concentration.
(§4) The fraction of bound protein was calculated as the difference between the total mass of protein injected mi and the mass of protein detected in the flowthrough mft, divided by the total mass of protein injected.
(§5) The yield of protein was calculated as the mass of protein eluted me, divided by the mass of protein injected mi.
(§6) The selectivity of resins was calculated as the fraction of bound Bevacizumab antibody BAb, divided by the fraction of bound host cell proteins BHCP.
(§7) The fraction of bound protein and the yield of protein were calculated for each resin based on data for whole IgG-antibodies. In the case of host cell proteins, only the fraction of bound protein is given. Selectivity of resins was calculated from data for Bevacizumab whole IgG and host cell proteins. Due to limited experimental precision, selectivity was truncated for values beyond 10.

Tocilizumab = test: Microtiter plate chromatography of resins: binding and elution of Tocilizumab; settings: fraction of injected protein bound; 0.5 mg/ml IgG in PBS pH 7.3
Experimental: as §1, §2, §3, §4, §5, §7

Palivizumab = test: Microtiter plate chromatography of resins: binding and elution of Palivizumab; settings: fraction of injected protein bound; 0.5 mg/ml IgG in PBS pH 7.3
Experimental: as §1, §2, §3, §4, §5, §7

Cetuximab = test: Microtiter plate chromatography of resins: binding and elution of Cetuximab; settings: fraction of injected protein bound; 0.5 mg/ml IgG in PBS pH 7.3
Experimental: as §1, §2, §3, §4, §5, §7

[2] = system: poly-IgG from human serum (h-poly-IgG); test: Microtiter plate chromatography of resins: binding and elution of human poly-IgG; settings: fraction of injected protein bound; 0.5 mg/ml IgG in PBS pH 7.3
Experimental: as §1, §2, §3, §4, §5, §7

host cell proteins (HCP) = test: Microtiter plate chromatography of resins: binding of host cell proteins; design: species or system CHO cell culture; settings: fraction of injected undiluted host cell proteins bound
Experimental: Flowthrough from protein A chromatography (referred to as host cell proteins) was derived from the supernatant of antibody-producing CHO cell culture in serum-free medium. Coomassie brilliant blue dye reagent for Bradford assay was purchased from Thermo Scientific (Bonn/Germany).
as §1, §2, §3, §4, §7

Bevacizumab [3] = target: T1, Bevacizumab; test: Langmuir isotherms by batch adsorption; assay type: binding; settings: for Kd: Bevacizumab 0.05-5 mg/ml in PBS pH 7.3, 25° C., at least 3 h, read-out: kd (dissociation constant, Langmuir isotherm) (converted); for qm (maximum capacity): mg Bevacizumab per ml of resin, Langmuir isotherm
Experimental: Experiments were performed with Bevacizumab as antibody. Parameters of Langmuir isotherms for purified antibody were determined by batch adsorption experiments in 96-well microtiter plates. In each well, 10 μl of sorbent slurry (50% v/v) were mixed with 100 μl of protein solution. Initial concentrations varied from 0.05-5 mg/ml in phosphate-buffered saline (0.15 M NaCl, 20 mM phosphate buffer, pH 7.3; PBS). Reactions were agitated vigorously at 25° C. for at least 3 h. Afterwards, antibody concentration in the supernatants were measured by Bradford assay. Data was evaluated by direct fitting of the values with the Langmuir isotherm equation (1).
Parameters of Langmuir isotherms, i.e. dissociation constants Kd and maximum capacities qm, were determined from the measured concentrations in the supernatants. Parameters were estimated by numerical fitting of the model equation derived by Chase (1)

Bevacizumab [4] = target: T1, Bevacizumab; test: Uptake kinetics by batch adsorption (time-scale of binding); settings: time after which 80% of equilibrium saturation occurred; 0.75 mg/ml Bevacizumab in PBS, 25° C.
Experimental: Uptake kinetics was investigated similarly by batch adsorption in 96-well filter plates. Again, 10 μl of sorbent slurry (50% v/v) were mixed with 100 μl of protein solution. […] Reactions were agitated vigorously at 25° C. for up to 80 min. Supernatants were separated rapidly by spinning through filters after 2.5, 5, 10, 20, 40 and 80 minutes and sampled for analysis. Concentrations of the antibody were analyzed by Bradford assay.
For determination of t0.8, measured concentrations in the supernatant were interpolated by fitting of double-exponentials and values of t0.8 were read out from graphs (2).

Bevacizumab [5] = test: Microtiter plate chromatography of resins: binding and elution of Bevacizumab; settings: fraction of bound Bevacizumab divided by fraction of bound HCP; truncated for values beyond 10
Experimental: as §1, §2, §3, §4, §5, §6, §7

| Bevacizumab Bound (Bevacizumab [1]) [%] | Bevacizumab Yield (Bevacizumab [1]) [%] | Tocilizumab Bound (Tocilizumab) [%] | Palivizumab Bound (Palivizumab) [%] | Cetuximab Bound (Cetuximab) [%] | h-poly-IgG Bound [2] [%] | Kd (Bevacizumab [3]) [µM] | qm (maximum capacity) (Bevacizumab [3]) [mg/mL] | t0.8 (time-scale of binding) (Bevacizumab [4]) [min] | Selectivity (Bevacizumab [5]) | Structure (SMILES) | HCP Bound (host cell proteins (HCP)) [%] |
| --- | --- | --- | --- | --- | --- | --- | --- | --- | --- | --- | --- |
| 100 | 95 | 98 | 58 | 89 | 63 |  |  |  | 8.3 | NCCCn1c(=O)c(=O)[nH]c2cc(C(=O)Nc3nnc(-c4ccco4)s3)ccc21 [Ligand L28, 1-(3-Amino-1-propyl)-2,3-dioxo-1,2,3,4-tetrahydroquinoxaline-6-carboxylic acid N-[5-(2-furyl)-1,3,4-thiadiazol-2-yl]amide] | 12 |
| 100 | 95 | 100 | 100 | 100 | 100 | 117 | 45 | 5.3 |  | Cn1c(CCCCCN)nc2cc(C(=O)Nc3nnc(-c4ccco4)s3)ccc21 [Ligand L31, 2-(5-Amino-1-pentyl)-1-methylbenzimidazole-5-carboxylic acid N-[5-(2-furyl)-1,3,4-thiadiazol-2-yl]amide] | 20 |
| 100 | 87 | 100 | 100 | 100 | 100 |  |  |  | 4.0 | NCCOCCOc1ccc(C(=O)Nc2nnc(-c3ccco3)s2)cc1 [Ligand L37, 4-(5-Amino-3-oxa-1-pentyloxy)benzoic acid N-[5-(2-furyl)-1,3,4-thiadiazol-2-yl] amide] | 25 |
| 100 | 96 | 100 | 100 | 100 | 100 | 131 | 34 | 11.8 |  | N[C@@H](CCC(=O)NCCOCCOCCn1cnc2cc(C(=O)Nc3nnc(-c4ccco4)s3)ccc21)C(=O)NCCOCCOCCn1cnc2cc(C(=O)Nc3nnc(-c4ccco4)s3)ccc21 [Ligand L53] | 11 |
| 100 | 95 | 100 | 100 | 100 | 100 | 46.9 | 35 | 8.4 |  | Cc1nc2cc(C(=O)Nc3nnc(-c4ccco4)s3)ccc2n1CCOCCOCCNC(=O)CC[C@H](N)C(=O)NCCOCCOCCn1c(C)nc2cc(C(=O)Nc3nnc(-c4ccco4)s3)ccc21 [Ligand L54] | 4 |

Continued, compound first:

| Structure (SMILES) | Bevacizumab Bound (Bevacizumab [1]) [%] | Bevacizumab Yield (Bevacizumab [1]) [%] | Tocilizumab Bound (Tocilizumab) [%] | Palivizumab Bound (Palivizumab) [%] | Cetuximab Bound (Cetuximab) [%] | h-poly-IgG Bound [2] [%] | Kd (Bevacizumab [3]) [µM] | qm (maximum capacity) (Bevacizumab [3]) [mg/mL] | t0.8 (time-scale of binding) (Bevacizumab [4]) [min] | Selectivity (Bevacizumab [5]) | HCP Bound (host cell proteins (HCP)) [%] |
| --- | --- | --- | --- | --- | --- | --- | --- | --- | --- | --- | --- |
| NCCOCCOCCn1cnc2cc(C(=O)Nc3nnc(-c4ccco4)s3)ccc21 | 100 | 99 | 100 | 100 | 99 | 100 | 85.9 | 37 | 6.6 |  | 4 |
| NCCOCCOCCn1cnc2cc(C(=O)Nc3nc(-c4ccccn4)cs3)ccc21 | 100 | 103 | 100 | 98 | 100 | 100 |  | 41 | 9.0 |  | 13 |
| Cc1nc2cc(C(=O)Nc3nnc(-c4ccco4)s3)ccc2n1CCOCCOCCN | 100 | 97 | 100 | 100 | 100 | 100 | 333 | 45 | 8.9 |  | 0 |
| NCCCn1cnc2cc(C(=O)Nc3nc4c(s3)CCC4)ccc21 [Ligand L32, 1-(3-Amino-1-propyl)benzimidazole-5-carboxylic acid N-(5,6-dihydro-(4H)-cyclopentathiazol-2-yl) amide] | 100 | 103 | 100 | 91 | 100 | 91 |  |  |  | 2.3 | 44 |
| NCCCn1cnc2cc(C(=O)Nc3nnc(-c4ccccc4)s3)ccc21 [Ligand L33, 1-(3-Amino-1-propyl)benzimidazole-5-carboxylic acid N-(2-phenyl-1,3,4-thiadiazol-5-yl) amide] | 100 | 105 | 100 | 100 | 100 | 100 |  |  |  | 2.9 | 34 |
| Cc1ccc(NC(=O)c2ccc3c(c2)ncn3CCCN)nn1 [Ligand L34, 1-(3-Amino-1-propyl)benzimidazole-5-carboxylic acid N-(6-methylpyridazin-3-yl) amide] | 100 | 104 | 85 | 78 | 100 | 78 |  |  |  | 10.0 | 10 |
| NCCCn1cnc2cc(C(=O)Nc3nnc(C4CC4)s3)ccc21 [Ligand L35, 1-(3-Amino-1-propyl)benzimidazole-5-carboxylic acid N-(2-cyclopropyl-1,3,4-thiadiazol-5-yl) amide] | 100 | 104 | 100 | 100 | 100 | 100 |  |  |  | 3.4 | 29 |
| NCCCOc1ccc(C(=O)Nc2nc(-c3ccccn3)cs2)cc1 [Ligand L38, 4-[(1-Amino-3-propyl)oxy]benzoic acid N-[4-(2-pyridyl)thiazol-2-yl] amide] | 100 | 106 | 99 | 95 | 100 | 99 |  |  |  | 2.9 | 35 |
| Cc1nc2cc(C(=O)Nc3nc(-c4ccncc4)cs3)ccc2n1CCCN [Ligand L51, 1-(3-Amino-1-propyl)-2-methylbenzimidazole-5-carboxylic acid N-[4-(4-pyridyl)thiazol-2-yl] amide] | 100 | 95 | 98 | 94 | 100 | 97 |  | 34 | 8.8 |  | 15 |
